Like-named read-outs stand apart in the source and are kept apart here.

A word on the IC50: it is the concentration that inhibits the measured activity by half.

In one series the test system is Daudi. The experiment in a line: Cytotoxicity by cell proliferation, Daudi cells. Format: cell-based. As to conditions: read-out: IC50 for indicated cell line Daudi. Here is the method: (§1) The cytotoxicity of the novel trans-platinum compounds was assayed through the standard protocols of the NCI Developmental Therapeutics (HIV) and NIAID (Herpes Viruses) Screening Programs.
(§2) http://www.niaid.nih.gov/dmid/apdsame.html. IC50 is cytotoxic dose in cell carriers.
(§3) The cytotoxicity of several nucleobase compounds of the general formula SP-4-2-[PtX(L)(L′)(B)]^+ was assessed and the results are given in Table I. The cell lines employed were human foreskin fibroblast (HFF), Daudi, and CEM-SS, a T-cell line typically used to csrry snd maintain human imnmunodefficiency virus (HIV). The lC50 values for HFF and Dsudi cell lines were determined by cell proliferation as referenced above. The IC50 values for the CEM-SS cell line was determined by XTT colorimetric assays as referenced above.

Series [1] relates to human foreskin fibroblast (HFF). The experiment in a line: Cytotoxicity by cell proliferation, HFF cells. Format: cell-based. As to conditions: read-out: IC50 for indicated cell line HFF. Here is the method: as §1, §2, §3
In the next series the test system is CEM-SS, a T-cell line. The experiment in a line: Cytotoxicity by XTT colorimetric assay, CEM-SS cells. Format: cell-based. As to conditions: read-out: IC50 for indicated cell line CEM-SS. The procedure:
as §1, §2, §3

Series [2] in a line: Water-solubility compared with the parent compound. Type of series: physicochemical. As to conditions: statement in words, no values.
Series [3] relates to L1210 Leukemia. As to conditions: for in vivo antitumor activity: murine L1210 leukemia. The source says:
b: %T/C is % average survival in days of treated animals/average survival in days of control animals. All tests performed as reported in references in a above. 50×3 refers to dose (mg/kg) and schedule (drug injection at 1,5,9 days after tumor inoculation).

Series [4] has as its system L1210 Leukemia. As to conditions: murine L1210 leukemia; J. Med. Chem. 32:2240; cited from earlier work.
For another series, the system named is A 2780. As to conditions: A 2780 cells.

As to `CCn1c[n+]([Pt-2]([NH2])([NH3+])[Cl])c2c(=O)[nH]c(N)nc21` (stereo not drawn) [Compound 1, trans-[PtCl(9-ethylguanine)(NH3)2]^+], the IC50 came out at 7.9 µM with Daudi and 18.9 µM in series [1].

Regarding `CCn1c[n+]([Pt-2]([NH2])([Cl])[n+]2ccsc2)c2c(=O)[nH]c(N)nc21` (centres unmarked) [Compound 2, SP-4-2-[PtCl(9-ethylguanine)(NH3)(thiazole)]^+], the IC50 in the series with Daudi stood at 18.1 µM; in series [1], 11.2 µM; in the series with CEM-SS, a T-cell line (first CEM-SS column), 47.3 µM; in the series with CEM-SS, a T-cell line (second CEM-SS column), 24.6 µM.

As for `CCn1c[n+]([Pt-2]([NH2])([Cl])[n+]2cccc3ccccc32)c2c(=O)[nH]c(N)nc21` (centres unmarked) [Compound 4], the half-inhibitory concentration (IC50) worked out at 0.93 µM in the series with Daudi; 25.9 µM in series [1]; 47.4 µM in the series on CEM-SS, a T-cell line (first CEM-SS column); 31.7 µM in the series with CEM-SS, a T-cell line (second CEM-SS column).

As to `CCn1c[n+]([Pt-2]([NH2])([Cl])[n+]2ccc3ccccc3c2)c2c(=O)[nH]c(N)nc21` (centres unmarked) [Compound 5, SP-4-2-[PtCl(9-ethylguanine)(NH3)(isoquinoline)]^+], the IC50 with Daudi is 4.8 µM; in series [1] it was 2.8 µM.

Take `CCn1c[n+]([Pt-2]([Cl])([n+]2ccc(C)cc2)[n+]2ccc(C)cc2)c2c(=O)[nH]c(N)nc21` [Compound 6, trans-[PtCl(9-ethylguanine) (4-picoline)2]^+]: the IC50 with Daudi stood at 0.92 µM; in series [1], 21.7 µM; with CEM-SS, a T-cell line (first CEM-SS column), 1.9 µM; in the series on CEM-SS, a T-cell line (second CEM-SS column), 2 µM. Moreover, the “water-solubility and bioavailability versus parent trans-[PtCl2(4-pic)2]” value in series [2] is “significant water-solubility and bioavailability over the parent compound”.

For the compound `Cn1ccc(N)[n+]([Pt-2]([NH2])([Cl])[n+]2cccc3ccccc32)c1=O` (centres unmarked) [Compound 9, SP-4-2-[PtCl(1-methylcytosine)(NH3)(quinoline)]^+], the IC50 in the series on Daudi was 14.1 µM; in series [1] it was 38.7 µM; in the series with CEM-SS, a T-cell line (first CEM-SS column), 50.4 µM; in the series on CEM-SS, a T-cell line (second CEM-SS column) it was 33.2 µM.

As to `Cn1ccc(N)[n+]([Pt-2]([NH2])([Cl])[n+]2ccc3ccccc3c2)c1=O` (centres unmarked) [Compound 10, SP-4-2-[PtCl(1-methylcytosine)(NH3)(isoquinoline)]^+], the figures for the IC50 (with Daudi; in series [1]) were 21.6 µM and more than 56.4 µM, respectively.

For `[Cl][Pt][Cl].c1ccncc1.c1ccncc1` [trans-[PtCl2(pyridine)2], reference compound], the “L1210 Leukemia % T/C” value in the series with L1210 Leukemia [3] (50 × 2: 50 mg/kg, injected twice only) is 106 (50 × 2) %. For the same compound, the “in vivo antitumor activity” value in the series on L1210 Leukemia [3] is “no activity”. Moreover, the “in vivo antitumor activity, previously reported” value with L1210 Leukemia [4] was “totally inactive”. Also, the “A 2780 IC50” value in the series on A 2780 stood at 0.2 µg/mL.

For the compound “SP-4-2-[PtCl(1-methylcytosine)(NH3)(thiazole)] [Compound 8]”, the 50% inhibitory concentration (IC50) in series [1] was more than 52 µM.

“SP-4-2-[PtCl(9-ethylguanine) (NH3)(benzothiazole)]^+ [Compound 3]”: the results for the IC50 (in the series on Daudi; in series [1]) were 9.8 µM and 11.2 µM, respectively.

With “trans-[PtCl(1-methylcytosine)(NH3)2]^+ [Compound 7]”, the half-inhibitory concentration (IC50) in the series with Daudi is 15 µM; in series [1], more than 45.2 µM.

With trans-[PtCl(Me2SO)(pyridine)2]^+, the “L1210 Leukemia % T/C” value with L1210 Leukemia [3] (50 × 3: 50 mg/kg, injection at 1,5,9 days after tumor inoculation, T/C >150% indicative of activity) is 155 (50 × 3) %. For the same compound, the “in vivo antitumor activity” value in the series with L1210 Leukemia [3] is listed as “some antitumor activity”. Besides, the “A 2780 IC50” value with A 2780 was determined as 0.3 µg/mL.

The values are drawn from patent US6350740B1, “Transplatinum complexes as cytotoxic and anticancer agents” (Virginia Commonwealth University, priority 2000, dated 2002).
